Patent US20250197420A1, “MACROCYCLIC COMPOUNDS, COMPOSITIONS, AND METHODS OF USING THEREOF” (Sionna Therapeutics Inc., priority 2022, published 2025)

target: T1, Purified recombinant NBD1 (Homo sapiens, UniProt P13569); assay: Aggregation analysis using differential static light scattering (DSLS): thermal stability of NBD1; format: binding; settings: NBD1 0.2 mg/ml; Tagg of compound well minus average Tagg of DMSO control wells
T1 construct: Purified recombinant NBD1 was produced using previously described methods; made in house
Experimental: Purified recombinant NBD1 was produced using previously described methods (A. Schmidt, J. L. Mendoza, P. J. Thomas (2011) Biochemical and Biophysical Approaches to Probe CFTR Structure (365-376) M. D. Amaral, K. Kunzelmann (eds.), Cystic Fibrosis, Methods in Molecular Biology 741, Springer Science+Business Media). The effect of test compounds on thermal stability of NBD1 was evaluated by differential static light scattering (DSLS) using the Harbinger Stargazer-384 instrument (Epiphyte Three, Toronto, Canada). Test compounds were dissolved and diluted to desired concentrations in 100% DMSO. The compounds or DMSO controls (100 nL) were stamped into wells of a […] low volume optical plate (Corning Inc., Corning, NY) using the Echo 555 acoustic liquid handler (Labcyte Inc., San Jose, CA).
NBD1 protein was diluted to 0.2 mg/ml in S200 buffer (50 mM Tris-HCl, 150 mM NaCl, 5 mM MgCl2, 2 mM ATP, 2 mM DTT, pH7.6) containing 1% glycerol. 10 uL of protein solution was aliquoted into the 384-well plate harboring the test compounds and 10 uL mineral oil was overlaid onto the protein solution, using the epMotion robotic liquid handler (Eppendorf North America, Hauppauge, NY). After placing into the Stargazer instrument, the plate was heated at 1° C. per minute to 70° C. Images were captured from 25° C. to 70° C. every 0.5° C. At the end of the experiment run, instrument software integrated image files and analyzed data automatically. A […] regression curve was generated for each well, representing the increase in light scattering over time. A temperature of aggregation (Tagg) was calculated based on the inflection point of the curve. To better compare data across experiments the average Tagg for DMSO control wells was calculated and subtracted from values for wells containing compounds to obtain a “ΔTagg” value. These ΔTagg values reflect stabilizing efficacy of the compounds. As set forth in Table 2 below, an ΔTagg value less than or equal to 5° C. is marked “A”; a value above 5° C. and less than or equal to 10° C. is marked “B”; a value greater than 10° C. and less than or equal to 25° C. is marked “C”.

T1 sequence (P13569 423-646 limits assumed): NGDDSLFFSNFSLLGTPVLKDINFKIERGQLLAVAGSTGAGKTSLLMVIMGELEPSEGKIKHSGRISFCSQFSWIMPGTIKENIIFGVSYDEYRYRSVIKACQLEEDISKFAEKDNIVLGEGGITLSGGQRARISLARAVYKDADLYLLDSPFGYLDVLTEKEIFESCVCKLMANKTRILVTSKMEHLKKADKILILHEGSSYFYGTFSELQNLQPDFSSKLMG

SMILES	DSLS (ΔTagg)
CN1CCOCC(C)(c2cccc(CCC(=O)O)c2)c2cnc([nH]2)-c2cc(ccc2F)Oc2c(F)cc3[nH]ccc3c2CCC1=O (stereo not drawn) [Compound 19, 3-[3-(22,28-Difluoro-6,11-dimethyl-12-oxo-8,24-dioxa-3,11,19,30-tetrazapentacyclo[23.3.1.12,5.015,23.016,20]triaconta-1(29),2,4,15,17,20,22,25,27-nonaen-6-yl)phenyl]propanoic acid]	C (a value greater than 10 °C and less than or equal to 25 °C is marked “C”)
CC(CC(=O)O)c1cccc(C2CCCCCN(C)C(=O)CCc3c(c(F)cc4[nH]ccc34)Oc3ccc(F)c(c3)-c3ncc2[nH]3)c1 (stereo not drawn) [Compound 21, 3-[3-(23,29-Difluoro-12-methyl-13-oxo-25-oxa-3,12,20,31-tetrazapentacyclo[24.3.1.12,5.016,24.017,21]hentriaconta-1(30),2,4,16,18,21,23,26,28-nonaen-6-yl)phenyl]butanoic acid]	C (a value greater than 10 °C and less than or equal to 25 °C is marked “C”)
CC(Cc1cccc(C2CCCCCN(C)C(=O)CCc3c(c(F)cc4[nH]ccc34)Oc3ccc(F)c(c3)-c3ncc2[nH]3)c1)C(=O)O (stereo not drawn) [Compound 22, 3-[3-(23,29-Difluoro-12-methyl-13-oxo-25-oxa-3,12,20,31-tetrazapentacyclo[24.3.1.12,5.016,24.017,21]hentriaconta-1(30),2,4,16,18,21,23,26,28-nonaen-6-yl)phenyl]-2-methyl-propanoic acid]	C (a value greater than 10 °C and less than or equal to 25 °C is marked “C”)
CC1CNC(=O)CCc2c(c(F)cc3[nH]ccc23)Oc2ccc(F)c(c2)-c2ncc([nH]2)C(C)(c2cccc(CCC(=O)O)c2)COC1 (stereo not drawn) [Compound 23, 3-[3-(23,29-Difluoro-6,10-dimethyl-13-oxo-8,25-dioxa-3,12,20,31-tetrazapentacyclo[24.3.1.12,5.016,24.017,21]hentriaconta-1(30),2,4,16,18,21,23,26,28-nonaen-6-yl)phenyl]propanoic acid]	C (a value greater than 10 °C and less than or equal to 25 °C is marked “C”)
CC1(c2cccc(CCC(=O)O)c2)CCC(=O)NCCCCc2c(c(F)cc3[nH]ccc23)Oc2ccc(F)c(c2)-c2ncc1[nH]2 (stereo not drawn) [Compound 24, 3-[3-(22,28-Difluoro-6-methyl-9-oxo-24-oxa-3,10,19,30-tetrazapentacyclo[23.3.1.12,5.015,23.016,20]triaconta-1(29),2,4,15,17,20,22,25,27-nonaen-6-yl)phenyl]propanoic acid]	C (a value greater than 10 °C and less than or equal to 25 °C is marked “C”)
CC1(c2ccccc2)CCC(=O)NCCCCc2c(c(F)cc3[nH]ccc23)Oc2ccc(F)c(c2)-c2ncc1[nH]2 (stereo not drawn) [Compound 25, 22,28-Difluoro-6-methyl-6-phenyl-24-oxa-3,10,19,30-tetrazapentacyclo[23.3.1.12,5.015,23.016,20]triaconta-1(29),2,4,15,17,20,22,25,27-nonaen-9-one]	B (a value above 5 °C and less than or equal to 10 °C is marked “B”)
CC1(C)CCC(c2cccc(CCC(=O)O)c2F)c2cnc([nH]2)-c2cc(ccc2F)Oc2c(F)cc3[nH]ccc3c2CCC(=O)NC1 (stereo not drawn) [Compound 32, 3-[3-(22,28-Difluoro-9,9-dimethyl-12-oxo-24-oxa-3,11,19,30-tetrazapentacyclo[23.3.1.12,5.015,23.016,20]triaconta-1(29),2,4,15,17,20,22,25,27-nonaen-6-yl)-2-fluoro-phenyl]propanoic acid]	B (a value above 5 °C and less than or equal to 10 °C is marked “B”)
[2H]C([2H])([2H])n1nc2nc1-c1cc(ccc1F)Oc1c(F)cc3[nH]ccc3c1CCC(=O)N(C)CC(C)(C)CCCC2(C)c1cccc(CCCO)c1 (stereo not drawn) [Compound 78, 23,29-difluoro-6-[3-(3-hydroxypropyl)phenyl]-6,10,10,12-tetramethyl-3-(trideuteriomethyl)-25-oxa-3,4,12,20,31-pentazapentacyclo-[24.3.1.12,5.016,24.017,21]hentriaconta-1(30),2(31),4,16,18,21,23,26,28-nonaen-13-one]	A (an ΔTagg value less than or equal to 5 °C is marked “A”)
O=C(O)CCc1cccc(C2CCCCOC(=O)NCCc3c(c(F)cc4[nH]ccc34)Oc3ccc(F)c(c3)-c3ncc2[nH]3)c1F (stereo not drawn) [Compound 81, 3-[3-(23,29-Difluoro-12-oxo-11,25-dioxa-3,13,20,31-tetrazapentacyclo[24.3.1.12,5.016,24.017,21]hentriaconta-1(30),2,4,16(24),17(21),18,22,26,28-nonaen-6-yl)-2-fluoro-phenyl]propanoic acid]	C (a value greater than 10 °C and less than or equal to 25 °C is marked “C”)
O=C1NCCc2c(c(F)cc3[nH]ccc23)Oc2ccc(F)c(c2)-c2ncc([nH]2)C(c2ccccc2F)CCCCO1 (stereo not drawn) [Compound 82, 23,29-Difluoro-6-(2-fluorophenyl)-11,25-dioxa-3,13,20,31-tetrazapentacyclo[24.3.1.12,5.016,24.017,21]hentriaconta-1(30),2,4,16(24),17(21),18,22,26,28-nonaen-12-one]	A (an ΔTagg value less than or equal to 5 °C is marked “A”)
CN1CC(O)CCCC(C)(c2cccc(CCC(=O)O)c2)c2cnc([nH]2)-c2cc(ccc2F)Oc2c(F)cc3[nH]ccc3c2CCC1=O (stereo not drawn) [Compound 104, 3-[3-(23,29-Difluoro-10-hydroxy-6,12-dimethyl-13-oxo-25-oxa-3,12,20,31-tetrazapentacyclo[24.3.1.12,5.016,24.017,21]hentriaconta-1(30),2,4,16,18,21,23,26,28-nonaen-6-yl)phenyl]propanoic acid]	C (a value greater than 10 °C and less than or equal to 25 °C is marked “C”)
CN1CC(=O)CCCC(C)(c2cccc(CCC(=O)O)c2)c2cnc([nH]2)-c2cc(ccc2F)Oc2c(F)cc3[nH]ccc3c2CCC1=O (stereo not drawn) [Compound 105, 3-[3-(23,29-Difluoro-6,12-dimethyl-10,13-dioxo-25-oxa-3,12,20,31-tetrazapentacyclo[24.3.1.12,5.016,24.017,21]hentriaconta-1(30),2,4,16,18,21,23,26,28-nonaen-6-yl)phenyl]propanoic acid]	C (a value greater than 10 °C and less than or equal to 25 °C is marked “C”)
